Measured values: patent US6096779A, “Amorphous piretanide, piretanide polymorphs, process for their preparation and their use” (Hoechst Pharmaceuticals & Chemicals K.K., priority 1995, dated 2000)
Values after ≈ are worked out from the molar mass of the structure shown. Read-outs that look alike come from different tables or passages of the source.

How the values were obtained:
[1] = Solubility in buffers at various pH values by dissolution tester, absorbance at 275 nm, 37° C.; assay type: physicochemical; conditions: for solubility in a buffer at a pH value of 1: pH 1, potassium chloride-hydrochloric acid buffer
Description: The amorphous piretanide obtained as described in Example 1 was analyzed for solubility in a buffer at various pH values by means of a dissolution tester, using piretanide form A as a control.
(§1) A sufficient amount of the amorphous piretanide to ensure supersaturation was added to 500 ml each of the buffers at various pH values as indicated below, and about 10 ml of a solution was sampled at appropriate intervals and filtered using a 0.45 μm filter. About 5 ml of the initial solution was discarded and the remainder was used as a sample solution and, if required, diluted with the same buffer. Solubility was determined by absorbance at 275 nm.
Buffer: pH 1 Potassium chloride-hydrochloric acid system
pH 3 Sodium chloride-glycine-hydrochloric acid system
pH 6.8 JP XII, second fluid
Solution temperature: 37° C.
The piretanide polymorph obtained as described in Example 6 was analyzed for solubility in a buffer at various pH values by means of a dissolution tester, using piretanide form A as a control.
as §1, with “buffer, if necessary, solubility” for “buffer. Solubility”

[2] = cited from earlier work; for solubility in a buffer at a pH value of 3: pH 3, 37° C.; for solubility at a pH value of 6.8: pH 6.8, 37° C.
[3] = Solubility in buffers at various pH values by dissolution tester, absorbance at 275 nm, 37° C.; assay type: physicochemical; conditions: pH 1, 37° C., vs piretanide form B
[4] = pH 3, sodium chloride-glycine-hydrochloric acid buffer

Structure (SMILES) | solubility in a buffer at a pH value of 1 [1] [mg/100 ml] | solubility in a buffer at a pH value of 3 [1, 4] [mg/100 ml] | solubility in a buffer at a pH value of 6.8 ([1]; pH 6.8, JP XII second fluid) [mg/100 ml] | solubility in a buffer at a pH value of 3 ([2]; background) [mg/100 ml] | solubility at a pH value of 6.8 ([2]; background) [mg/100 ml] | solubility ([1]; jp xii second fluid, pH 6.8, pH 6.8, JP XII second fluid, read-out: solubility in a buffer at a pH value of 6.8 (control, unit as printed)) [mg/mL] | solubility in a buffer at a pH value of 1 ([2]; pH 1, 37° C., background) [mg/100 ml] | water solubility ([2]; water, 20° C.) [mg/100 ml] | solubility ([1]; jp xii second fluid, pH 6.8, pH 6.8, JP XII second fluid, read-out: solubility in a buffer at a pH value of 6.8) [mg/mL] | solubility ([1]; nacl-glycine-hcl buffer, pH 3, aqueous buffer, pH 3, sodium chloride-glycine-hydrochloric acid buffer, read-out: solubility in a buffer at a pH value of 3) [mg/mL] | solubility compared with piretanide form B, pH 1 (in words) [3]
NS(=O)(=O)c1cc(C(=O)O)cc(N2CCCC2)c1Oc1ccccc1 [amorphous piretanide, 4-phenoxy-3-(1-pyrrolidinyl)-5-sulfamoyl-benzoicacid] | 15.2 | 6.5 | 901.3 | – | – | – | – | – | – | – | –
NS(=O)(=O)c1cc(C(=O)O)cc(N2CCCC2)c1Oc1ccccc1 [piretanide form B, 4-phenoxy-3-(1-pyrrolidinyl)-5-sulfamoyl-benzoicacid] | – | – | – | 6.4 | 195.4 | – | – | – | – | – | –
NS(=O)(=O)c1cc(C(=O)O)cc(N2CCCC2)c1Oc1ccccc1 [piretanide form A, 4-phenoxy-3-(1-pyrrolidinyl)-5-sulfamoyl-benzoicacid] | 7.5 | 4.2 | – | 4.2 | 193.8 | 1.94 (≈ 5.35 mM) | 7.5 | 7.9 | – | – | –
NS(=O)(=O)c1cc(C(=O)O)cc(N2CCCC2)c1Oc1ccccc1 [piretanide polymorph, 4-phenoxy-3-(1-pyrrolidinyl)-5-sulfamoyl-benzoicacid] | 12.2 | – | – | – | – | – | – | – | 9.27 (≈ 25.6 mM) | 0.067 (≈ 0.185 mM) | approximately similar solubility to that of piretanide form B
